This is an account of results in patent US10890557B2, “Electrochemical biosensor” (I-SENS, INC., priority 2014, dated 2021).

For data set [1], the system named is FAD-glucose dehydrogenase (FAD-GDH). Type of data set: biochemical. The settings on record: pH 7.4. Here is the method: To verify the electrochemical properties of osmium complex, cyclic voltammetry was performed. Using a carbon electrode as the working electrode, platinum as the auxiliary electrode, and an Ag/AgCl (sat. KCl) electrode as a reference electrode, the current was measured by changing the glucose concentration in a mixed solution including FAD-glucose dehydrogenase (FAD-GDH) 10 mg/mL, osmium complex 30 mmol and 0.1 M PBS (pH 7.4).

On data set [2], the source says: In subsequent examples, an osmium complex sodium salt was used by substituting the osmium complex with NaOH at 1:3 equivalent ratios.
The nature of data set [3]: Stability test: UV-visible spectrum change over time in aqueous solution. Type of data set: physicochemical.
Description: Specifically, the UV-visible spectrum of an aqueous solution of 1 mg of each osmium complex, ruthenium hexamine, and Ferricyanide dissolved in 1 mL of 0.1 M PBS (pH 7.4) was measured and stored at room temperature for 11 days.

Take Os(dcbpy)2Cl2 [osmium complex]: the response slope in data set [1] is recorded as 77.1 nA/(mg/dL). Further, in data set [2], the solubility in water entry is reported as “low solubility in water”. The “UV-visible spectrum change over time” value in data set [3] (pH 7.4) is “the absorbance of absorption peaks at 400 nm and 520 mm decreased with time”.
Consider `N.N.N.N.N.N.[Cl-].[Cl-].[Cl-].[Ru+3]` [ruthenium hexamine, Hexamine ruthenium chloride [Ru(NH3)6Cl3], reference compound], for which, in data set [3] (1 mg in 1 mL 0.1 M PBS (pH 7.4), room temperature, 11 days), the “UV-visible spectrum change over time” value is reported as “no change in the UV-visible spectrum was observed over time”.
